Consider two molecules from article PMC6697720, “Saturation of acyl chains converts cardiolipin from an antagonist to an activator of Toll-like receptor-4” (Cellular and Molecular Life Sciences: CMLS, 2019).

In assay [1] the test system is RAW-Blue cells. The assay is described as follows: NF-κB activation (SEAP, Quanti-Blue) by CL or LPS in RAW-Blue cells. Type of assay: cell-based, murine. The following applies: CL alone, overnight. The method, then: RAW-Blue™ cells were seeded the day before the experiment at 5 × 10^5 cells/mL in 48-well plates (500 μL/well).
These cells express a secreted embryonic alkaline phosphatase (SEAP) when NF-κB is activated. NF-κB activation was measured by measuring the alkaline phosphatase produced by RAW-Blue™ cells using the Quanti-Blue™ reagent (InvivoGen), according to the manufacturer’s instructions.
Fig. 3 Saturated but not unsaturated CLs have pro-inflammatory properties. a RAW-Blue™ cells were incubated overnight with the indicated amount of CL or LPS, supernatants were collected, and NF-κB activation quantified via Quanti-Blue™ test and reported here as fold induction as compared to control. Unpaired t test: differences with respect to the control (Ctrl) are not significant if p > 0.05 (no symbol); *p ≤ 0.0007. b Immortalized BMDM cells were incubated overnight with the indicated amount of CL or LPS; supernatants were collected and TNF-α quantified via ELISA assay. c, d Primary human monocytes were incubated overnight with the indicated amount of CL or LPS with or without the NLRP3 inhibitor MCC950, supernatants were collected, and TNF-α and IL-1β were quantified via ELISA assay. Graphs are representative of experiments from six different donors. Unpaired t test: differences with respect to the control (Ctrl) are not significant if p > 0.05 (no symbol); *p ≤ 0.021. Each bar represents the mean + standard deviation of three biological replicates (n = 3). Graphs are representative of at least three independent experiments

Assay [2] has as its target T1, human TLR4/MD2/CD14 (Homo sapiens, UniProt O00206+Q9Y6Y9).
T1 construct: expressed in transfected cells; host or cells: HEK293 (ATCC CRL1573), transient transfection with jetPEI
The experiment in a line: Inhibition of LPS-induced NF-κB luciferase reporter in HEK293 cells transfected with human TLR4/MD2/CD14. It counts as cell-based. The note with it: for inhibition of LPS-induced signaling (LPS dose-response, 0 to 1000 ng/mL), mode of action: 1 h CL pre-incubation. The method, then: Cells were seeded at 4 × 10^4 cells/mL in 96-well plates (200 μL/well) and transiently transfected 4 days later. Expression vectors containing an NF-κB transcription reporter vector-encoding firefly luciferase (10 ng/well pNF-κB-luc from Clontech), and a constitutively active reporter vector-encoding Renilla luciferase (5 ng/well phRG-TK; Promega), together with empty vector (pcDNA3.1 from Invitrogen Cat. N. V79020) and cDNA encoding human membrane CD14 (3 ng/well) and human or murine TLR4 and MD2 (3 ng/well) were mixed with jetPEI (Polyplus transfection Cat.N. 101-10N) and incubated with cells according to the manufacturer’s instructions.
After treatment supernatants were discarded, cells were washed with PBS and lysed with passive lysis buffer (Promega Cat.N. E1941). Luciferase and Renilla activity on cell lysates were quantified on a BioTek Synergy HT microplate reader using home-made luciferase reagent (20 mM Tricine, 2.67 mM MgSO4·7H2O, 0.265 mM (MgCO3)4Mg(OH)2·5H2O, 0.1 mM EDTA, 33.3 mM DTT, 530 μM ATP, 270 μM Acetyl Coenzyme A (Lithium salt), 470 μM luciferin (Biosynth), pH 7.8, diluted two times in water before use), or coelenterazine (Biosynth) dissolved in ethanol at 1 mg/mL and diluted 500 times in PBS before use as previously described. Firefly and Renilla luciferase activity on cell lysates were normalized, and data were expressed as fold induction as compared to unstimulated conditions.
In contrast to C16:0 and C18:0, C14:0 CL acted as an agonist in murine but not human cells (Fig. 3), a property similar to that of the LPS variant lipid IVa. to establish whether C14:0, like lipid IVa, is a weak human TLR4 antagonist, we tested the ability of all saturated CLs to inhibit signaling induced by LPS over a range of concentrations. For each CL, cells transfected with human TLR4/MD2/CD14 were pre-incubated with medium alone or two different CL concentrations for 1 h, and then washed and incubated for 6 h with increasing amounts of LPS (from 0 to 1000 ng/mL). […] The dose–response curve of LPS was shifted to the right.
(§1) Fig. 6 C14:0 is a competitive human TLR4 antagonist. HEK293 cells were transfected with plasmids encoding hTLR4, hMD2, and hCD14 together with a luciferase reporter plasmid dependent on NF-κB activation and a constitutively active reporter vector-encoding renilla luciferase. Two days after transfection, cells were incubated for 1 h with medium alone or the indicated amount of CLs, then washed and incubated 6 h with increasing amount of LPS. Luciferase and renilla were then quantified in cell lysate, and normalized and reported here as fold induction as compared to control. Each bar represents the mean ± standard deviation of three biological replicates (n = 3). Graphs are representative of at least three independent experiments
as §1, with “7 Unsaturated cardiolipins are” for “6 C14:0 is a”, “antagonists.” for “antagonist.”, “CLs, and” for “CLs,”
To quantify and compare the potency of CLs as inhibitors, we determined IC50 values in HEK293 cells transfected with human TLR4/MD2/CD14, for each of the antagonists (Fig. 8 and Table 1). […]

T1 sequence (O00206 24-839): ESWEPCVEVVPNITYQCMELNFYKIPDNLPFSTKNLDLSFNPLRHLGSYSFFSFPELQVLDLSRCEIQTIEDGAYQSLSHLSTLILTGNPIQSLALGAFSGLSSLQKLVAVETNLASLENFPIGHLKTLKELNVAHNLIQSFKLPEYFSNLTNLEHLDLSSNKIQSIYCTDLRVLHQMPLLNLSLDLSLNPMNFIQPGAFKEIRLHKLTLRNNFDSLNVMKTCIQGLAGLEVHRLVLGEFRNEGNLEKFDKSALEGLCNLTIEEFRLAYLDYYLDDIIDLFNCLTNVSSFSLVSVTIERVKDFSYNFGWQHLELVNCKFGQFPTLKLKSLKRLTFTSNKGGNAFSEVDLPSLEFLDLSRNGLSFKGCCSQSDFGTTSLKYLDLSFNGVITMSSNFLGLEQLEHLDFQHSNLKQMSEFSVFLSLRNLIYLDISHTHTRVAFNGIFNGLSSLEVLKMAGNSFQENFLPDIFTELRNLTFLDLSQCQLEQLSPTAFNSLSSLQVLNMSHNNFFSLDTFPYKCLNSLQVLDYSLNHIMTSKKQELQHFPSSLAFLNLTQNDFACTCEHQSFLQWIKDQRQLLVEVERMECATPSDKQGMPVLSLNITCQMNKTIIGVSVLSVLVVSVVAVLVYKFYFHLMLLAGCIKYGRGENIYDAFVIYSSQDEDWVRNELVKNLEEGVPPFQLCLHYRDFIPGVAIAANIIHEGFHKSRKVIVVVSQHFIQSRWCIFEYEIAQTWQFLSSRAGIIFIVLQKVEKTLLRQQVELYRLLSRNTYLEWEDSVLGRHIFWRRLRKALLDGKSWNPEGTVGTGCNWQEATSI
T1 sequence (Q9Y6Y9 19-160): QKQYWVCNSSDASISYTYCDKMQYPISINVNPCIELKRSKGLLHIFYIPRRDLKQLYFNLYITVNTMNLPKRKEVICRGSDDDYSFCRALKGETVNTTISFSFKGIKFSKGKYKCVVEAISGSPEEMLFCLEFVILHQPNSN

For `CCCCCCCCCCCCCC(=O)OC[C@H](COP(=O)(O)OCC(O)COP(=O)(O)OC[C@@H](COC(=O)CCCCCCCCCCCCC)OC(=O)CCCCCCCCCCCCC)OC(=O)CCCCCCCCCCCCC` (stereo partly shown) [C14:0 CL], in assay [1], the NF-κB activation entry was “induced”. The “inhibition of LPS-induced signaling (LPS dose-response, 0 to 1000 ng/mL), mode of action” value is recorded as “competitive inhibitor” in assay [2] (washed, 6 h LPS) and “competitive TLR4 antagonists” in assay [2] (washed, 6 h LPS, listed as C14:0). The IC50 in assay [2] (HEK293 hTLR4/hMD2/hCD14, 1 h CL, washed, 6 h LPS, Prism fit of Fig. 8 data) was roughly 325 µM; in assay [2] (approx., HEK293 human TLR4/MD2/CD14), roughly 300 µM.

On to `CCCCCCCCCCCCCCCCCC(=O)OC[C@H](COP(=O)(O)OCC(O)COP(=O)(O)OC[C@@H](COC(=O)CCCCCCCCCCCCCCCCC)OC(=O)CCCCCCCCCCCCCCCCC)OC(=O)CCCCCCCCCCCCCCCCC` (stereo partly shown) [C18:0 CL], for which the NF-κB activation result in assay [1] was “induced”. Further, the “inhibition of LPS-induced signaling (LPS dose-response, 0 to 1000 ng/mL), mode of action” value in assay [2] (washed, 6 h LPS) is “did not inhibit”.
